Experimental data taken from the NIST ThermoML archive (doi:10.1021/je9002114).

Assays:
[1] = xn = mol fraction of the nth substance listed; settings: 298.15 K, Ring tensiometer
[2] = 298.15 K; for surface tension liquid-gas: Ring tensiometer; for mass density: 101.33 kPa, Liquid

CCCCCCOC(C)=O [hexyl ethanoate] + C1COCCO1
[1]
Settings	surface tension liquid-gas [mN/m]
x1 = 0.0467	32.56
x1 = 0.0925	32.06
x1 = 0.1414	31.56
x1 = 0.1905	31.1
x1 = 0.2422	30.62
x1 = 0.2921	30.17
x1 = 0.3417	29.79
x1 = 0.3934	29.43
x1 = 0.4434	29.11
x1 = 0.495	28.81
x1 = 0.5433	28.56
x1 = 0.5962	28.29
x1 = 0.6408	28.09
x1 = 0.6859	27.91
x1 = 0.7406	27.71
x1 = 0.7981	27.52
x1 = 0.8426	27.38
x1 = 0.8954	27.22
x1 = 0.9448	27.12

CCCCCCOC(C)=O [hexyl ethanoate]
[2]
Settings	mass density [kg/m3]	surface tension liquid-gas [mN/m]
–	868.52	26.39

C1COCCO1 [1,4-dioxane]
[2]
Settings	mass density [kg/m3]	surface tension liquid-gas [mN/m]
–	1027.82	32.71

CCCCCOC(C)=O [pentyl ethanoate] + CN(C)C=O
[1]
Settings	surface tension liquid-gas [mN/m]
x1 = 0.05	34.9
x1 = 0.0941	34.08
x1 = 0.1466	33.24
x1 = 0.198	32.24
x1 = 0.2452	31.67
x1 = 0.2909	30.99
x1 = 0.3496	30.37
x1 = 0.3978	29.95
x1 = 0.4481	29.3
x1 = 0.4998	28.87
x1 = 0.5453	28.59
x1 = 0.5998	28.05
x1 = 0.6445	27.78
x1 = 0.6901	27.39
x1 = 0.7499	27.09
x1 = 0.7958	26.83
x1 = 0.8477	26.51
x1 = 0.8965	26.23
x1 = 0.9397	26.09

CCCCOC(C)=O [butyl ethanoate] + CN(C)C=O
[1]
Settings	surface tension liquid-gas [mN/m]
x1 = 0.0508	35.02
x1 = 0.0995	33.45
x1 = 0.1441	32.35
x1 = 0.1809	31.7
x1 = 0.25	30.5
x1 = 0.2962	29.75
x1 = 0.3447	29.19
x1 = 0.3904	28.66
x1 = 0.4455	28.19
x1 = 0.4954	27.69
x1 = 0.5443	27.35
x1 = 0.5956	27.07
x1 = 0.648	26.66
x1 = 0.6993	26.36
x1 = 0.7466	26.16
x1 = 0.7935	25.81
x1 = 0.8467	25.65
x1 = 0.8983	25.47
x1 = 0.9464	25.26

CCCCOC(C)=O [butyl ethanoate] + C1COCCO1
[1]
Settings	surface tension liquid-gas [mN/m]
x1 = 0.05	31.19
x1 = 0.0975	30.51
x1 = 0.1457	29.87
x1 = 0.1995	29.32
x1 = 0.2485	28.88
x1 = 0.2883	28.55
x1 = 0.3445	28.13
x1 = 0.3932	27.79
x1 = 0.4475	27.47
x1 = 0.4929	27.21
x1 = 0.5486	26.93
x1 = 0.592	26.69
x1 = 0.6429	26.45
x1 = 0.6933	26.2
x1 = 0.7466	25.97
x1 = 0.7954	25.8
x1 = 0.8438	25.56
x1 = 0.8901	25.36
x1 = 0.9419	25.16

CN(C)C=O [dimethylformamide]
[2]
Settings	mass density [kg/m3]	surface tension liquid-gas [mN/m]
–	943.81	36.98

CCCCCCOC(C)=O [hexyl ethanoate] + CN(C)C=O
[1]
Settings	surface tension liquid-gas [mN/m]
x1 = 0.0495	35.78
x1 = 0.0964	35.06
x1 = 0.1435	34.43
x1 = 0.198	33.72
x1 = 0.2432	33.16
x1 = 0.299	32.51
x1 = 0.349	31.96
x1 = 0.397	31.46
x1 = 0.444	31.02
x1 = 0.4969	30.57
x1 = 0.5461	30.12
x1 = 0.5945	29.72
x1 = 0.6434	29.35
x1 = 0.6908	29.01
x1 = 0.7457	28.61
x1 = 0.7896	28.31
x1 = 0.8466	27.99
x1 = 0.8951	27.67
x1 = 0.9494	27.41

CCCCCOC(C)=O [pentyl ethanoate]
[2]
Settings	mass density [kg/m3]	surface tension liquid-gas [mN/m]
–	870.17	25.21

CCCCOC(C)=O [butyl ethanoate]
[2]
Settings	mass density [kg/m3]	surface tension liquid-gas [mN/m]
–	876.38	24.85

CCCCCOC(C)=O [pentyl ethanoate] + C1COCCO1
[1]
Settings	surface tension liquid-gas [mN/m]
x1 = 0.05	32.35
x1 = 0.1026	31.65
x1 = 0.1516	31.05
x1 = 0.2062	30.52
x1 = 0.2562	30.05
x1 = 0.311	29.48
x1 = 0.3637	29.01
x1 = 0.4209	28.58
x1 = 0.4616	28.27
x1 = 0.5112	27.92
x1 = 0.5614	27.55
x1 = 0.6136	27.3
x1 = 0.6558	27.07
x1 = 0.7043	26.89
x1 = 0.7538	26.71
x1 = 0.8033	26.56
x1 = 0.8511	26.39
x1 = 0.8956	26.26
x1 = 0.9449	26.12
